Data taken from US20200188473A1, “COMBINATION THERAPY FOR CANCER” (BETH ISRAEL DEACONESS MEDICAL CENTER, INC., priority 2017, published 2020).

Assays:
ACE2 = experiment: transcriptome analysis of untreated vs resistant xenograft tumors; type: in vivo, mice; details: for ACE2 down modulation in resistant tumors vs control untreated tumors: 786-0 model
Experimental: Transcriptome analysis of the untreated tumors vs the resistant tumors was performed. ACE2 was the second most down-modulated gene common to the sorafenib and sunitinib treated 786-0 model with a 2.4 fold down modulation in the resistant tumors vs the control untreated tumors. Moreover, ACE2 was in the top 3 most down-modulated genes in the A498 tumor model with a 5-fold decrease i n resistant tumors vs untreated tumors (P<0.001).

[1] = test system: human VHL deficient RCC cell lines (A498); details: A498 xenograft; treatment begun at 12 mm diameter; resistance = time to grow 2 mm beyond pretreatment size; sunitinib 30 mg/kg daily by gavage
Experimental: A murine xenograft system to study resistance antiangiogenic agents was developed. To assess the effects of antiangiogenic therapy on the growth of human RCC xenografts, established human VHL deficient RCC cell lines (A498) were implanted subcutaneously (1×10^7 cells) into the flanks of 6-8 week old nude/beige mice. The tumors were measured in two axes and the largest axis was followed. Treatment with sunitinib or sorafenib was begun when the tumors reached a diameter of 12 mm (roughly 3 weeks after injection) and resistance to this treatment was monitored. Resistance was defined as the time required for a tumor to grow 2 mm beyond its pretreatment size. […] This model was used to study the mechanisms by which tumors escape angiogenesis inhibition.
The effect of sunitinib and Ang(1-7) on the growth of human RCC xenografts was tested. 1×10^7 cells were injected into the flanks of nude-beige mice. Established human VHL deficient RCC cell lines (A498) were implanted subcutaneously (1×10^7 cells) into the flanks of 6-8 week old nude/beige mice. The tumors were measured in two axes and the largest axis was followed. Treatment with sunitinib (30 mg/kg daily by gavage) and Ang(1-7) 1 mg/kg Ang(1-7) IP three times per week was begun when the tumors reached a diameter of 12 mm (roughly 3 weeks after injection). […]

SMILES	ACE2 down modulation in resistant tumors vs control untreated tumors (ACE2) [fold]	period of relative stabilization [1] [days]	ACE2 expression (ACE2; murine xenograft system, sunitinib treatment)
CNC(=O)c1cc(Oc2ccc(NC(=O)Nc3ccc(Cl)c(C(F)(F)F)c3)cc2)ccn1 [sorafenib]	2.4	–	–
CCN(CC)CCNC(=O)c1c(C)[nH]c(/C=C2\C(=O)Nc3ccc(F)cc32)c1C [sunitinib]	2.4	10 to 12	loss of ACE2 expression
